We go through two compounds from patent US20080103191A1, “ENTACAPONE-DERIVATIVES” (priority 2006, published 2008).

Data set [1] is described as follows: Log D (pH 7.4) by isocratic HPLC. Conditions: YMC Pro C18 column, phosphate buffer pH 7.4/acetonitrile 45/55. It is filed as physicochemical. The procedure:
LogD is an indicator for absorption and lipophilicity for ionized compounds under defined pH conditions and is measured by applying an isocratic HPLC Method at pH 7.4.
The log D has been tested at pH 7.4. The testing has been carried out by the following method: Isocratic HPLC method: Column YMC Pro C18, 150 mm×4.0 mm, 3 μm, Eluent Phosphate buffer pH 7.4/acetonitrile (45/55, (v/v)), Runtime 15-60 min, Flow rate 1.2 ml/min, Detection wavelength: 220 nm

Data set [2] in a line: Permeability in Caco-2 cells, apical to basolateral. Conditions: human; 21d Caco-2 monolayer, apical pH 6.5 to basolateral pH 7.4, 60 minutes. It is filed as in vitro ADME. More on the design: dose or concentration left out as unconfirmed. The source says:
The human adenocarcinoma cell line Caco-2 is used as an in vitro system to predict oral absorption. These cells serve as a model of small bowel tissue and permeation through these cells is a predictor for gastro-intestinal absorption. Further to being a model for oral absorption, permeability in Caco-2 cells may be predictive for the blood brain barrier permeability (P. Garberg et al.; Toxicology in vitro 19 (2005); 299-334). […] The permeability in Caco-2 cells has been tested by the following method:
The permeability of selected compounds of formula I across Caco-2 (21d Caco-2-culture) monolayer in the apical to basolateral direction is investigated. Control substances were ^3H-propranolol and ^3H-mannitol.
The nominal concentration of the test items is […]. The pH value is set to 6.5 for the apical transport medium and to 7.4 for the basolateral medium. Samples are obtained following 60 minutes (120 minutes for control samples) incubation from the basolateral receiver chamber. At sampling time approximately 600 μL of each well are transferred into an eppendorf vial and stored between −12° and −30° C. until HPLC or LC-MS/MS analysis. The control substances are quantified by liquid scintillation.
(Caco-2 cells form a polarised layer with tight junctions and transporters.)

The nature of data set [3]: Solubility in 0.1 N HCl, PBS buffer, FaSSIF and FeSSIF. The class given is physicochemical. Conditions: thermodynamic from solid. The procedure:
For testing solubility, saturated solutions of selected compounds of formula I are prepared in four different systems and compared to the solubility of entacapone. The solubility is tested in 0.1 N HCl (pH 1), PBS buffer (pH 7.4) and in two simulated gastric fluids, FaSSIF at pH 6.5 (for fasting state) and FeSSIF at pH 5.0 (for fed state) at ambient temperature. The content of the FaSSIF simulated gastric fluid is as follows:
The solubility testing is carried out by the following method: An excess amount of each compound is added to a 0.1 N HCl, PBS buffer, FeSSIF and FaSSIF. The suspensions are shaken for 10 min. After centrifugation the concentration is determined by HPLC. Reversed phase gradient HPLC method, column YMC Pro C8, 50 mm×4.0 mm, 3 μm, Eluent A: Water:trifluoroacetic acid (100:0.5 (v/v)), Eluent B: Acetonitrile:trifluoroacetic:acid (100:0.5 (v/v)). Column temperature 30° C., Flow rate 3.0 mL/min, Detection wavelength: 220 nm

A short description of data set [4]: Chemical hydrolysis stability at pH 1 and pH 7.4 (HPLC). The class given is physicochemical. Conditions: 37° C., over 12 h. On the procedure:
The stability of compounds of the present invention is tested at pH 1 and at pH 7.4. The testing is carried out by the following HPLC method:
Chemical hydrolysis rates t1/2 [h] of selected compounds of formula I are determined in 0.1 N HCl (pH 1) and PBS buffer (pH 7.4) solution. Solutions are prepared by dissolving an appropriate amount of compound in 0.1 N HCl and PBS buffer solution. Samples were withdrawn at designated time intervals and analysed for remaining prodrug by HPLC at 37° C. over 12 h.
Reversed phase gradient HPLC method, column YMC Pro C8, 50 mm×4.0 mm, 3 μm, Eluent A: Water:trifluoroacetic acid (100:0.5 (v/v)), Eluent B: Acetonitrile:trifluoroacetic:acid (100:0.5 (v/v)). Column temperature 30° C., Flow rate 3.0 mL/min, Detection wavelength: 220 nm
For evaluation, the peak area of the respective compound from the first injection is defined as 100% relative concentration. The peak areas of all other subsequent injections are calculated in percentage relating to this standard. (relative concentration in %). The relative concentrations are plotted in a logarithmic scale (ln) against the injection times. Based on the assumption of a first order kinetic, the rate constant and half life times (t1/2 [h]) can be calculated.

A short description of data set [5]: Solubility in Labrasol and TPGS/PG formulations. It is filed as physicochemical. The procedure:
Selected lipophilic carbonate compounds of formula I with promising Caco-2 permeabilities are formulated with different lipids/lipophilic excipients and/or micelles forming compounds in order to increase their solubilities. The following formulations are prepared by mixing the ingredients mentioned below: • i) Formulations comprising solubilizers in the form of lipides/lipophilic excipients: • ia) Formulation comprising Labrasol® and the selected compounds of Formula I • Labrasol®: • Caprylocaproyl macrogol-8-glyceride (CAS No. 85536-07-8 and 84963-88-2). This is a mixture of mono-, di- and triesters of glycerol and of PEG 400 with medium-chain fatty acids (C8-C10) which is marketed, for example, by Gattefossé under the mark Labrasol®; Labrasol® has an HLB value (hydrophil-lipophil-balance, Griffin, W. C.: Classification of surface active agents by HLB, J. Soc. Cosmet. 1, 1949) of 14 and has the following composition by weight:
• ib) Formulation comprising NanoSolve® 5401 (Lipoid GmbH, Germany) and the selected compounds of formula I • ic) Formulation comprising TPGS/PG in a weight ratio of 25% by weight of TPGS to 75% by weight of PG and the selected compounds of formula I. • PG: propylene glycol • TPGS: Vitamin E TPGS NF (d-α-tocopheryl polyethylene glycol 1000 succinate) which is marketed, for example, by Eastman Chemical Co • ii) Formulation comprising a micelles forming agent: • iia) Aqueous formulation comprising 30% by weight of Cremophor® RH 40 (relating to the weight of the aqueous phase) in water and the selected compounds of formula I • Cremophor® RH 40: • Generic names: • Polyoxyl 40 Hydrogenated Castor Oil (USP/NF). • Macrogol-Glycerolhydroxystearat (DAB). • Polyoxyethylenglyceroltrihydroxystearat (DAC). • Cremophor RH 40 is a non-ionic solubilizer and emulsifying agent obtained by reacting 45 moles of ethylene oxide with 1 mole of hydrogenated castor oil. The main constituent of Cremophor RH 40 is glycerol polyethylene glycol oxystearate, which, together with fatty acid glycerol polyglycol esters, forms the hydrophobic part of the product. The hydrophilic part consists of polyethylene glycols and glycerol ethoxylate. Cremophor RH 40 is a white to yellowish thin paste at 20° C. The HLB value lies between 14 and 16. Cremophor RH 40 is marketed by BASF AG.
The solubility of selected compounds of formula I in these formulations is measured and compared to the solubility of the compounds in 0.1N HCl (pH 1.0), PBS buffer (pH 7.4), and two simulated gastric fluids (i.e., FaSSIF (pH 6.5) simulating fasting sate and FeSSIF (pH 5.0) simulating fed state) (see above for details).

Data set [6] in a line: Storage stability at ambient temperature. Particulars: glass bottles, more than two years, reanalysis by HPLC/MS and NMR. The class given is physicochemical.
[7] abbreviates: 0.1 N HCl, pH 1, simulated gastric fluid, Table 11, maximum solubility, read-out: Solubility 0.1N HCl pH 1.0.
Where [8] appears, read: 0.1 N HCl, pH 1, simulated gastric fluid, ambient temperature, shaken 10 min, read-out: Solubility 0.1N HCl Ph 1.0.
Setting [9] is: FaSSIF, pH 6.5, fassif, Table 11, read-out: Solubility FaSSIF pH 6.5.
[10] abbreviates: FaSSIF, pH 6.5, fassif, fasting state fluid, ambient temperature, read-out: Solubility FaSSIF Ph 6.5.
Where [11] appears, read: FeSSIF, pH 5, fessif, Table 11, read-out: Solubility FeSSIF pH 5.0.
The mark [12] stands for this setting: FeSSIF, pH 5, fessif, fed state fluid, ambient temperature, read-out: Solubility FeSSIF Ph 5.0.
Where [13] appears, read: PBS buffer, pH 7.4, aqueous buffer, Table 11, read-out: Solubility PBS pH 7.4.
The mark [14] stands for this setting: PBS buffer, pH 7.4, aqueous buffer, ambient temperature, read-out: Solubility PBS Ph 7.4.
Where [15] appears, read: Labrasol, oil or lipid, read-out: Solubility Labrasol ®.

Each structure is given as a SMILES string. In brackets after ≈: the same amount, converted by molar mass. Where two headings read alike, the source gives them in different places.

With `CCC(CC)OC(=O)Oc1cc(/C=C(\C#N)C(=O)N(CC)CC)cc([N+](=O)[O-])c1O` [Compound 10, Carbonic acid 5-((E)-2-cyano-2-diethylcarbamoyl-vinyl)-2-hydroxy-3-nito-phenyl ester 1-ethyl-propyl ester], the chromatographic logD – broadly, lipophilicity estimated from chromatographic retention – in data set [1] came to 1.8. For the same compound, the Papp A→B – broadly, how fast a substance crosses the layer from the apical side – at 60 min in data set [2] was 22.4 ×10⁻⁶ cm/s. The solubility at 10 min in data set [3] (setting [7]) was 30 µg/mL (≈ 71.5 µM); in data set [3] (setting [8]) it was 30 µg/mL (≈ 71.5 µM); in data set [3] (setting [9]), 840 µg/mL (≈ 2000 µM); in data set [3] (setting [10]), 840 µg/mL (≈ 2000 µM); in data set [3] (setting [11]), 1330 µg/mL (≈ 3170 µM); in data set [3] (setting [12]), 190 µg/mL (≈ 453 µM). Further, the figures for the solubility at 10 min in data set [3] (setting [13]) and in data set [3] (setting [14]) were 190 µg/mL (≈ 453 µM) and 1330 µg/mL (≈ 3170 µM), respectively. For the same compound, the half-life in data set [4] (pH 1, 0.1 N HCl, read-out: t1/2 at pH 1 (converted)) is 38.5 h; in data set [4] (pH 7.4, PBS buffer, read-out: t1/2 at pH 7.4 (converted)), 38.5 h. In addition, the solubility in data set [5] (setting [15]) is 22000 µg/mL (≈ 52500 µM); in data set [5] (organic solvent or mixture, 25% by weight TPGS, 75% by weight PG, read-out: Solubility TPGS/PG) it was 3900 µg/mL (≈ 9300 µM).

Regarding `CCN(CC)C(=O)/C(C#N)=C/c1cc(O)c(O)c([N+](=O)[O-])c1` [entacapone, (E)-N,N-diethyl-2-cyano-3-(3,4-dihydroxy-5-nitrophenyl)acrylamide], the degradation on storage result in data set [6] was “without degradation”. Further, the chromatographic logD in data set [1] was found to be 0.5. In data set [2], this compound registered a Papp A→B at 60 min of 17 ×10⁻⁶ cm/s. For the same compound, the solubility at 10 min in data set [3] (setting [7]) was 50 µg/mL (≈ 164 µM); in data set [3] (setting [8]), 50 µg/mL (≈ 164 µM); in data set [3] (setting [9]) it was 150 µg/mL (≈ 491 µM); in data set [3] (setting [10]), 150 µg/mL (≈ 491 µM); in data set [3] (setting [11]), 990 µg/mL (≈ 3240 µM); in data set [3] (setting [12]), 990 µg/mL (≈ 3240 µM). In addition, the solubility at 10 min in data set [3] (setting [13]) and in data set [3] (setting [14]) was 1350 µg/mL (≈ 4420 µM) throughout. Further, the “t1/2 at pH 1” value in data set [4] (0.1 N HCl) is listed as “stable”. The “t1/2 at pH 7.4” value in data set [4] (PBS buffer) is reported as “stable”. Moreover, the solubility in data set [5] (setting [15]) turned out to be 23000 µg/mL (≈ 75300 µM).
